Where two headings read alike, the source gives them in different places.
Assays:
mice [1] = conditions: mouse, in vivo
mice [2] = test: complete ischaemia by decapitation in mice (duration of respiratory movements of the isolated head); assay type: in vivo, white mice line H; conditions: 1 hour before
Description: Example 2. Pharmacological study of the cerebro-protective anti-ischaemic effect using the method of"complete ischaemia by decapitation" in mice. The experiments are carried out on white mice line H (18-22g) in groups of 8 animals. Complete […] caused by means of a decapitation of the animals using the method of Hollowach-Thurston et al.(9). The duration of the respiratory movements of the isolated head (in seconds) was measured. The results are calculated as a percentage towards the control group. […]

mice [3] = test: hypobaric hypoxia in mice (survival time in decompression chamber, 210 mmHg); assay type: in vivo, white mice line H; conditions: 1 hour before the hypoxia
Description: EXAMPLE 1: Pharmacological study: Cerebro-protective anti-hypoxic effect using the method "hypobaric hypoxia" in mice. The experiments are carried out on white mice line H (18-22 g) in groups of 8 animals. […] The survival time (in seconds) from the beginning of the hypoxia till the death of the animals was measured. The results were calculated as a percentage towards the control group. […]

in vivo = conditions: mouse

Structure (SMILES)	LD₅₀ (mice [1]; ip)	LD₅₀ (mice [1]; po)	Increase of the resistance towards ischaemia (% towards the control group) (mice [2]; 10 mg/kg intraperitoneally)	Increase of the resistancy towards hypoxia (% towards the control group) (mice [3]; 10 mg/kg intraperitoneally)	LD50 (in vivo; ip)	LD50 (in vivo; po)	Increase of the resistance towards ischaemia (% towards the control group) (mice [2]; 1600 mg/kg intraperitoneally)	Increase of the resistancy towards hypoxia (% towards the control group) (mice [3]; 1600 mg/kg intraperitoneally)
Fc1ccc(C(c2ccc(F)cc2)N2CCN(C/C=C/c3ccccc3)CC2)cc1 [Flunarizine]	204/158+264/ mg/kg	232/182+295/ mg/kg	42,8%	11,7%	204 mg/kg	232 mg/kg	–	–
NC(=O)CN1CCCC1=O [Piracetam, 2-oxo-1-pyrrolidineacetamide]	–	–	–	–	8000 mg/kg	8000 mg/kg	27,9%	22,8%
